Test results as given in patent US20200262813A1, “1,5,7-TRISUBSTITUTED ISOQUINOLINE DERIVATIVES, PREPARATION THEREOF, AND USE THEREOF IN MEDICINES” (SHANGHAI HAIYAN PHARMACEUTICAL TECHNOLOGY CO., LTD., priority 2016, published 2020).
Where two headings read alike, the source gives them in different places.

What was measured:
[1] = tested on: Pfeiffer cells; assay: Cell proliferation test (cell counting kit-8, 6 days); type: cell-based; conditions: 6 days' growth
Method: Cells were harvested by centrifuge and densities were determined using a CounterStar cell counter. Appropriate number of cells were plated in a 96-well culture plate and incubated overnight. Compounds to be tested were 1:3 diluted for 8 gradient points and added into corresponding wells. After 6 days' growth, cell counting kit-8 (Dojindo) was used to detect cell viability and absorbance values were read on Tecan infinite pro.

[2] = target: Recombinant PRC2 (EZH2-Y641F) (Homo sapiens, UniProt Q15910, Y641F); assay: In vitro methyltransferase activity test (LANCE Ultra); conditions: LANCE Ultra detection, 3 hours reaction;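 also: compounds tested as an 8-point threefold dilution series, fluorescence read after 1 h detection step at room temperature, IC50 derived from a four-parameter curve fit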
Sequence of Recombinant PRC2 (EZH2-Y641F) (Q15910 whole entry Y641F): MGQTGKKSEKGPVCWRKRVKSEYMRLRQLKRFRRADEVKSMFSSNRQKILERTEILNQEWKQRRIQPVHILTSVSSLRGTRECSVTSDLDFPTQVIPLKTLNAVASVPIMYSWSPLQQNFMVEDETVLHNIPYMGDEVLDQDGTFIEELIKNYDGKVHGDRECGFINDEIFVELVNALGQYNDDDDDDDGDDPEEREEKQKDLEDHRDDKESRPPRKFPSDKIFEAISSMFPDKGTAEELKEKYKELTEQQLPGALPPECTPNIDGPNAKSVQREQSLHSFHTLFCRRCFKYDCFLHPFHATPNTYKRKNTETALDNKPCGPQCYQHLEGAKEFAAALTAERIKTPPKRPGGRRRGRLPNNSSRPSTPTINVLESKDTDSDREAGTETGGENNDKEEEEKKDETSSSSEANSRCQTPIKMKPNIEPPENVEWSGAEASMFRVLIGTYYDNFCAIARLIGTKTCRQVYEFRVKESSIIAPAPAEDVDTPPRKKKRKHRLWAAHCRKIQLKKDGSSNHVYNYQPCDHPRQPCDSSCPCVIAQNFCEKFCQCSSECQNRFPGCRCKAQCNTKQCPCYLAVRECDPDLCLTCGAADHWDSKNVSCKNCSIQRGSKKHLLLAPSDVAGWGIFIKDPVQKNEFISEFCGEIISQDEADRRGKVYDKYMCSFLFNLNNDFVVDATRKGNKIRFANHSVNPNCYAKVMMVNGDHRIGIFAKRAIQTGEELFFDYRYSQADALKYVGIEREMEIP
Sequence of Recombinant PRC2 (EZH2-Y641F) (O75530 whole entry partner): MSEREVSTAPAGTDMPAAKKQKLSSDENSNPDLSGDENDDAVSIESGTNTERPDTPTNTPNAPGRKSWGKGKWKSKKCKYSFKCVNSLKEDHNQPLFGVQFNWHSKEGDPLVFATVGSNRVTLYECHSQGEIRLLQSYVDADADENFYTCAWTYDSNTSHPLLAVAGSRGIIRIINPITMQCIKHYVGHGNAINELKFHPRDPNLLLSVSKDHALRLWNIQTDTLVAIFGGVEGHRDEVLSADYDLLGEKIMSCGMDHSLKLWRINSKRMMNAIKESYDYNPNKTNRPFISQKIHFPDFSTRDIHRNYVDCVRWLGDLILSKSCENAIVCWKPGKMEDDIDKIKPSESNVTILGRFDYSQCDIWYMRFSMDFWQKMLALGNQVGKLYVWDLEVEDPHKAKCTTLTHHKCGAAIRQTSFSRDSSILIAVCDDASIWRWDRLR
Sequence of Recombinant PRC2 (EZH2-Y641F) (Q15022 whole entry partner): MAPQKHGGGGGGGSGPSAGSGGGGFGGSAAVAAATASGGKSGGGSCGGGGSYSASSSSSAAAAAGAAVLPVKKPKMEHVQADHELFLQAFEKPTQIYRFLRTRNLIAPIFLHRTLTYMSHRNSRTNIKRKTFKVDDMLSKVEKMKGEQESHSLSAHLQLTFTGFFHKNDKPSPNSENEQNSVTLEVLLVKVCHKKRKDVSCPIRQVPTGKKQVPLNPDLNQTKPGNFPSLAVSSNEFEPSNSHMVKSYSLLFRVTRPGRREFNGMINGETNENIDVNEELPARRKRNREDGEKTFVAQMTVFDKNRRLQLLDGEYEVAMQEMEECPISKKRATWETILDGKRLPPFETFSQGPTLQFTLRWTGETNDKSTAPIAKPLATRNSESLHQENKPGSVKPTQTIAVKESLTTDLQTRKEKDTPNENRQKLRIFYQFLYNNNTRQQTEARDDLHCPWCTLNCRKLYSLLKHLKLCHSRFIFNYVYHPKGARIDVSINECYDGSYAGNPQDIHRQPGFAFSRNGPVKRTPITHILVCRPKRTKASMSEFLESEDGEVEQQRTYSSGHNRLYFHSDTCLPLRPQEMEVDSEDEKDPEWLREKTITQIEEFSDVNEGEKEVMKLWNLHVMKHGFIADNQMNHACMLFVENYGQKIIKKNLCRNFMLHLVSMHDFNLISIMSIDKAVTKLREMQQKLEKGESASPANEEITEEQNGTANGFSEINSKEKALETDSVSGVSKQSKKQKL
Sequence of Recombinant PRC2 (EZH2-Y641F) (Q09028 whole entry partner): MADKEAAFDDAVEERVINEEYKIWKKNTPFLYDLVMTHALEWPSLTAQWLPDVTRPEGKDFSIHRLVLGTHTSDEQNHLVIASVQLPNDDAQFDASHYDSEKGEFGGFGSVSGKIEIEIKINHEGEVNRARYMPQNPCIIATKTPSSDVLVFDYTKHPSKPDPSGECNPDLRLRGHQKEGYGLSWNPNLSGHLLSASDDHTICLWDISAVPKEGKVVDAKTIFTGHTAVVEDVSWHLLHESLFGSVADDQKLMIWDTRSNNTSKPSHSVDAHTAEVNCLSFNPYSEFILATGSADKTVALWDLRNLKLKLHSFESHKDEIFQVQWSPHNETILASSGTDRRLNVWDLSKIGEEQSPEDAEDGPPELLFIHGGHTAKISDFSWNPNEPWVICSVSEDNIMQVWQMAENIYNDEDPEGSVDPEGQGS
Sequence of Recombinant PRC2 (EZH2-Y641F) (Q6ZN18 whole entry partner): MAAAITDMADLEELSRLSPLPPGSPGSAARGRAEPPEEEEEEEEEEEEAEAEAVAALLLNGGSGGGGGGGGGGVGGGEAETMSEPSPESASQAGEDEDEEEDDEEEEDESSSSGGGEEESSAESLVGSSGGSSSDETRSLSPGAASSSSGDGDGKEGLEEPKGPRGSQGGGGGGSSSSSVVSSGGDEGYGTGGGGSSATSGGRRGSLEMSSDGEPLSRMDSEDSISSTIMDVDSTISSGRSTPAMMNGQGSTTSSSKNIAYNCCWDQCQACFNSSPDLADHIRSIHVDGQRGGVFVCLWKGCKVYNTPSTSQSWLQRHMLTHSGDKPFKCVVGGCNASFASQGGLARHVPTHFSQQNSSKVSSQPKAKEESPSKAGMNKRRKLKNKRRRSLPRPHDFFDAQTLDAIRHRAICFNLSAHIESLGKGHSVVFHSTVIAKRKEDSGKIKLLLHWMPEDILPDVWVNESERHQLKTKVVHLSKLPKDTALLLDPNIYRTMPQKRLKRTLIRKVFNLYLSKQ
Method: In Vitro Methyltransferase Activity Test
Recombinant PRC2 (EZH2-Y641F) was purchased from Active motif, S-adenosyl-methionine (SAM) and Poly-L-lysine (PLL) were purchased from Sigma-Aldrich, H3(1-50)K27mel polypeptide was purchased from Cisbio. LANCEUltra system (Perkinelmer) was used for detection. In the enzyme activity test, a compound to be tested was 1:3 diluted for 8 gradient points, added into a reaction plate, and then added 100 ng recombinant enzyme. And then a buffer [20 mM Tris pH8.5, 2 mM MgCl2, 0.01% Tween-20, 1 mM TCEP] containing 2.5 M SAM/250 nM H3(1-50)K27mel premixture was added to conduct an enzyme reaction at room tempreture. After reacted for 3 hours, a dection solution containing premixed PLL, detection antibody and Ulight was added, reacted for 1 h at RT, then fluorescence was read on Tecan infinite pro. IC50s were calculated by four-factor model fitting in a XLfit software.

[3] = EZH2 Y641F IC50, Recombinant PRC2 (EZH2-Y641F)

| SMILES | IC50 [2, 3] [nM] | other results |
| --- | --- | --- |
| CCN(c1cc(-c2ccc(CN3CCN(C)CC3)nc2)cc2c(NCc3c(C)cc(C)[nH]c3=O)nccc12)[C@H]1CC[C@@H](N(C)C)CC1 [Compound Z-58] |  | IC50 [1]: 359 nM |
| CCN(c1cc(-c2ccc(N3CCOCC3)nc2)cc2c(NCc3c(C)cc(C)[nH]c3=O)nccc12)C1CCC(O)CC1 (stereo not shown) [Compound Z-70] |  | IC50 [1]: 516 nM |
| CCN(c1cc(-c2cnc(N3CCOCC3)nc2)cc2c(NCc3c(C)cc(C)[nH]c3=O)nccc12)C1CCN(C2CC2)CC1 [Compound Z-92] |  | IC50 [1]: 688 nM |
| CCN(c1cc(Cl)cc2c(NCc3c(C)cc(C)[nH]c3=O)nccc12)C1CCS(=O)(=O)CC1 [Compound Z-139] | 418 |  |
| CCN(c1cc(Cl)cc2c(NCc3c(C)cc(C)[nH]c3=O)nccc12)C1CCN(C(C)=O)CC1 [Compound Z-144] | 152 |  |
| CCN(c1cc(Cl)cc2c(NCc3c(C)cc(C)[nH]c3=O)nccc12)C1CCC(N(C)CCOC)CC1 (stereo not shown) [Compound Z-145] | 203 |  |
| CCN(c1cc(Cl)cc2c(NCc3c(C)cc(C)nc3O)nccc12)[C@H]1CC[C@H](N2CC(OC)C2)CC1 [Compound Z-149] | 159 |  |
| CCN(c1cc(-c2ccc(N3CCNCC3)nc2)cc2c(NCc3c(C)cc(C)[nH]c3=O)nccc12)C1CCOCC1 [Compound Z-151] | 50 |  |
| CCN(c1cc(-c2ccc(CN3CCNCC3)nc2)cc2c(NCc3c(C)cc(C)[nH]c3=O)nccc12)C1CCOCC1 [Compound Z-152] | 96 |  |
| CCN(c1cc(-c2ccc(CN3CCNCC3)cc2)cc2c(NCc3c(C)cc(C)[nH]c3=O)nccc12)C1CCC(N(C)C)CC1 (stereo not shown) [Compound Z-153] | 54 |  |
| CCN(c1cc(-c2ccc(CN3CCNCC3)nc2)cc2c(NCc3c(C)cc(C)[nH]c3=O)nccc12)C1CCC(N(C)C)CC1 (stereo not shown) [Compound Z-154] | 19 |  |
| CCN(c1cc(-c2cn[nH]c2)cc2c(NCc3c(C)cc(C)[nH]c3=O)nccc12)C1CCC(N(C)C)CC1 (stereo not shown) [Compound Z-155] | 159 |  |
| CCN(c1cc(-c2ccc(N3CCNCC3)nc2)cc2c(NCc3c(C)cc(C)[nH]c3=O)nccc12)C1CCC(NC(C)=O)CC1 (stereo not shown) [Compound Z-156] | 37 |  |
| CCN(c1cc(-c2ccc(N3CCNCC3)nc2)cc2c(NCc3c(C)cc(C)[nH]c3=O)nccc12)C1CCC(N(C)C)CC1 (stereo not shown) [Compound Z-157] | 16 |  |
| CCN(c1cc(-c2ccc(NC3CCN(C)CC3)cc2)cc2c(NCc3c(C)cc(C)[nH]c3=O)nccc12)C1CCOCC1 [Compound Z-158] | 367 |  |
| CCN(c1cc(-c2ccc(N3CCNCC3)nc2)cc2c(NCc3c(C)cc(C)[nH]c3=O)nccc12)C1CCC(O)CC1 (stereo not shown) [Compound Z-159] | 21 |  |
| CCN(c1cc(-c2cnc(N3CCNCC3)nc2)cc2c(NCc3c(C)cc(C)[nH]c3=O)nccc12)[C@H]1CC[C@H](N(C)C)CC1 [Compound Z-160] | 6 |  |
| CCN(c1cc(C(=O)NC)cc2c(NCc3c(C)cc(C)[nH]c3=O)nccc12)C1CCOCC1 [Compound Z-161] | 331 |  |
| CCN(c1cc(C(=O)Nc2cccnc2)cc2c(NCc3c(C)cc(C)[nH]c3=O)nccc12)C1CCOCC1 [Compound Z-162] | 253 |  |
| CCN(c1cc(C(=O)NC2CCN(C)CC2)cc2c(NCc3c(C)cc(C)[nH]c3=O)nccc12)C1CCOCC1 [Compound Z-163] | 33 |  |
| CCN(c1cc(C(=O)Nc2ccccn2)cc2c(NCc3c(C)cc(C)[nH]c3=O)nccc12)C1CCOCC1 [Compound Z-164] | 371 |  |
| CCN(c1cc(C(=O)NC)cc2c(NCc3c(C)cc(C)[nH]c3=O)nccc12)[C@H]1CC[C@H](N(C)C)CC1 [Compound Z-166] | 15 |  |
| CCN(c1cc(C(=O)N2CCOCC2)cc2c(NCc3c(C)cc(C)[nH]c3=O)nccc12)C1CCOCC1 [Compound Z-167] | 453 |  |
| CCN(c1cc(C(=O)N(C)C2CCN(C)CC2)cc2c(NCc3c(C)cc(C)[nH]c3=O)nccc12)C1CCOCC1 [Compound Z-169] | 451 |  |
| CCN(c1cc(C(=O)N(C)C)cc2c(NCc3c(C)cc(C)[nH]c3=O)nccc12)[C@H]1CC[C@H](N(C)C)CC1 [Compound Z-170] | 374 |  |

| SMILES | IC50 [2, 3] [nM] | other results |
| --- | --- | --- |
| CCN(c1cc(C(=O)NC2CCN(C)CC2)cc2c(NCc3c(C)cc(C)[nH]c3=O)nccc12)C1CCC(N(C)C)CC1 (stereo not shown) [Compound Z-172] | 81 |  |
| CCN(c1cc(Cl)cc2c(NCc3c(C)cc(C)[nH]c3=O)nccc12)C1CCN(C(=O)CC#N)CC1 [Compound Z-175] | 182 |  |
| CCN(c1cc(Cl)cc2c(NCc3c(C)cc(C)[nH]c3=O)nccc12)C1CCN(C(=O)CO)CC1 [Compound Z-176] | 139 |  |
| CCN(c1cc(C#CCN2CCOCC2)cc2c(NCc3c(C)cc(C)[nH]c3=O)nccc12)C1CCOCC1 [Compound Z-178] | 348 |  |
| CCN(c1cc(C#CCN2CCOCC2)cc2c(NCc3c(C)cc(C)[nH]c3=O)nccc12)C1CCN(C(C)=O)CC1 [Compound Z-181] | 226 |  |
| CCN(c1cc(Nc2cccnc2)cc2c(NCc3c(C)cc(C)[nH]c3=O)nccc12)[C@H]1CC[C@H](N(C)C)CC1 [Compound Z-182] | 504 |  |
| CCN(c1cc(N2CCN(C)CC2)cc2c(NCc3c(C)cc(C)[nH]c3=O)nccc12)C1CCC(N(C)C)CC1 (stereo not shown) [Compound Z-187] | 213 |  |
| CCN(c1cc(Oc2cccnc2)cc2c(NCc3c(C)cc(C)[nH]c3=O)nccc12)[C@H]1CC[C@H](N(C)C)CC1 [Compound Z-188] |  | IC50 ([2]; read-out: EZH2 Y641F IC50, Recombinant PRC2 (EZH2-Y641F)): 112 nM |
| CCN(c1cc(N2CCN(C3CCOCC3)CC2)cc2c(NCc3c(C)cc(C)[nH]c3=O)nccc12)C1CCC(N(C)C)CC1 (stereo not shown) [Compound Z-189] | 307 |  |
| CCN(c1cc(Oc2ccccc2)cc2c(NCc3c(C)cc(C)[nH]c3=O)nccc12)[C@H]1CC[C@H](N(C)C)CC1 [Compound Z-190] | 472 |  |
| CCN(c1cc(-c2ccc(N3CCN(C)CC3)nc2)cc2c(NCc3c(OC)cc(C)[nH]c3=O)nccc12)C1CCN(C(C)C)CC1 [Compound Z-191] | 206 |  |
| CCc1cc(C)[nH]c(=O)c1CNc1nccc2c(N(CC)C3CCC(N(C)C)CC3)cc(Cl)cc12 (stereo not shown) [Compound Z-204] | 24 |  |
| CCN(c1cc(Cl)cc2c(NCc3c(C)cc(C)[nH]c3=O)nccc12)C1CCC(N2CCC2)CC1 (stereo not shown) [Compound Z-205] | 35 |  |
| CCN(c1cc(Cl)cc2c(NCc3c(C)cc(C)[nH]c3=O)nccc12)C1CC2(CNC2)C1 [Compound Z-207] | 32 |  |
| CCN(c1cc(C2CCN(C)CC2)cc2c(NCc3c(C)cc(C)[nH]c3=O)nccc12)C1CCC(O)CC1 (stereo not shown) [Compound Z-212] | 185 |  |
| CCN(c1cc(C(C)C)cc2c(NCc3c(C)cc(C)[nH]c3=O)nccc12)[C@H]1CC[C@H](N(C)C)CC1 [Compound Z-214] | 373 |  |
| CCN(c1cc(-c2ccc(N3CCN(C)CC3)nc2)cc2c(NCc3c(C)n(C)[nH]c3=O)nccc12)C1CCC(N(C)C)CC1 (stereo not shown) [Compound Z-216, 4-((5-((4-(dimethylamino)cyclohexyl)(ethyl)amino)-7-(6-(4-methylpiperazin-1-yl)pyridine-3-yl)isoquinolin-1-ylamino)methyl)-1,5-dimethyl-H-pyrazol-3-(2H)-one] | 365 |  |
| CCN(c1cc(-c2cnc(N3CCN(C)CC3)nc2)cc2c(NCc3c(C)cc(C)[nH]c3=O)nccc12)C1CCC(C)(O)CC1 (stereo not shown) [Compound Z-221, 3-((5-(ethyl(4-hydroxy-4-methylcyclohexyl)amino)-7-(2-(4-methylpiperazin-1-yl)pyrimidin-5-yl)isoquinolin-1-ylamino)methyl)-4,6-dimethyl pyridin-2(1H)-one] | 194 |  |
| CCN(c1cc(-c2ccc(N3CCN(C)CC3)nc2)cc2c(NCc3c(C)cc(C)[nH]c3=O)ncc(F)c12)C1CCC(N(C)C)CC1 (stereo not shown) [Compound Z-223, 3-((5-((4-(dimethylamino)cyclohexyl)(ethyl)amino)-4-fluoro-7-(6-(4-methylpiperazin-1-yl)pyridin-3-yl)isoquinolin-1-ylamino)methyl)-4,6-dimethyl-2(1H)-one] | 45 |  |
| CCN(c1cc(-c2ccc(N3CCN(C)CC3)nc2)cc2c(NCc3c(C)cc(C)[nH]c3=O)nccc12)C1CCC(NC(C)=O)CC1 (stereo not shown) [Compound Z-225, N-(4-((1-((4,6-dimethyl-2-oxo-1,2-dihydropyridin-3-yl)methylamino)-7-(6-(4-methylpiperazin-1-yl)pyridin-3-yl)isoquinolin-5-yl) (ethyl)amino)cyclohexyl) acetamide] | 68 |  |
| CCN(c1cc(C(N)=O)cc2c(NCc3c(C)cc(C)[nH]c3=O)nccc12)[C@H]1CC[C@H](N(C)C)CC1 [Compound Z-227, 1-((4,6-dimethyl-2-oxo-1,2-dihydropyridin-3-yl)methylamino)-5-(((1R,4R)-4-(dimethylamino)cyclohexyl) (ethyl)amino) isoquinoline-7-carboxamide] | 64 |  |
| CCN(c1cc(Cl)cc2c(NCc3c(C)cc(C)[nH]c3=O)nccc12)C1CCN(S(C)(=O)=O)CC1 [Compound Z-229] | 429 |  |
| CCN(c1c(F)c(-c2ccc(N3CCN(C)CC3)nc2)cc2c(NCc3c(C)cc(C)nc3O)nccc12)[C@H]1CC[C@@H](N(C)C)CC1 [Compound Z-231, 3-((5-(((1S,4S)-4-(dimethylamino)cyclohexyl) (ethyl)amino)-6-fluoro-7-(6-(4-methylpiperazin-1-yl)pyridin-3-yl)isoquinolin-1-ylamino)methyl)-4,6-dimethyl-2(1H)-one] | 174 |  |
| CCN(c1cc(C(C)C)cc2c(NCc3c(C)cc(C)[nH]c3=O)nccc12)C1CCNCC1 [Compound Z-235, 3-((5-(ethyl (piperidin-4-yl)amino)-7-isopropylisoquinolin-1-ylamino)methyl)-4,6-dimethyl-2(1H)-one] | 129 |  |
